Data published in ChEMBL document CHEMBL1201862, “PubChem BioAssay data set” (2004).
The source made the active and inactive calls.

Columns and labels:
[1] = target: Glyceraldehyde-3-phosphate dehydrogenase (Homo sapiens, UniProt P04406)
[2] = target: Tyrosine-protein phosphatase non-receptor type 12 (Homo sapiens, UniProt Q05209); test: SAR Selectivity Analysis of small molecule inhibitors of PEST using pCAP in a fluorescence assay. [Related pubchem assays (depositor defined):AID1779, AID1784, AID2135]; type: functional
[3] = target: T1, Tyrosine-protein phosphatase non-receptor type 22 (Homo sapiens, UniProt Q9Y2R2); test: SAR LYP1 Fluorescent Assay using OMFP substrate for In Vitro dose response studies - Set 3. [Related pubchem assays (depositor defined):AID1779, AID1784, AID2140, AID2686]; type: functional
T1 sequence (Q9Y2R2 whole entry): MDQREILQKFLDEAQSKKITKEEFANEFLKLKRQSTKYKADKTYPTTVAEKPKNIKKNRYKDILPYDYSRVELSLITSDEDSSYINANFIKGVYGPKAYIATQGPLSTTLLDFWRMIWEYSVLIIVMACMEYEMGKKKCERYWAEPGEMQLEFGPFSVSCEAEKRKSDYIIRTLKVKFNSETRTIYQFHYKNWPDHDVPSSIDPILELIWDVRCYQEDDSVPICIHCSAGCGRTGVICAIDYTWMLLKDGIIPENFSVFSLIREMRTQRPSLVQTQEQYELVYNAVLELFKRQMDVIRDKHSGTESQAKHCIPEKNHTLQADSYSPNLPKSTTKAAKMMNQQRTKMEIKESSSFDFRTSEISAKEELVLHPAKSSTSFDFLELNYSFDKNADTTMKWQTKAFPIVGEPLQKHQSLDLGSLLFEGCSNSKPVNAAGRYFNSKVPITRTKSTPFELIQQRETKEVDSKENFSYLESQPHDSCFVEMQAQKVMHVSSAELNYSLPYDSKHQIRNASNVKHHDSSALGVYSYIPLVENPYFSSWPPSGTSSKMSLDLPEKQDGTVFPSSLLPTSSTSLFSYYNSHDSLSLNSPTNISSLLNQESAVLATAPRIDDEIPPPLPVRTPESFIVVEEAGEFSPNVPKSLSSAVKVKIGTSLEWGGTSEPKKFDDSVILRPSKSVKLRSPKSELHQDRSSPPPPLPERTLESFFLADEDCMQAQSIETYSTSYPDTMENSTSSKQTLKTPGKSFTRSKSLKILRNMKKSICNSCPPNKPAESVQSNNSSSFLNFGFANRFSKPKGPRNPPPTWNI

[4] = target: T1, Tyrosine-protein phosphatase non-receptor type 22; test: inhibition of lymphoid tyrosine phosphatase LYP – biochemical, pCAP fluorogenic substrate, fluorescence, set 3, SAR follow-up (AID 449727); type: functional
[5] = viability of uninfected HEp-2 cells – cell-based, HTS, cytotoxicity control for RSV inhibitor project, dose response (AID 2410); type: functional; conditions: human respiratory syncytial virus
[6] = test system: Streptococcus sp. 'group A'; test: Streptococcus pyogenes SK(-)GAS viability under kanamycin – luminescence, BacTiterGlo, confirmation, counter-screen for streptokinase expression inhibitor project, dose response (AID 1900); type: functional, organism-based
Streptokinase A = target: T2, Streptokinase A (Streptococcus pyogenes serotype M1, UniProt P10520); test: viability-normalized secreted streptokinase activity reduction – plasminogen activation absorbance, OD405, dose response (AID 1914); type: functional, Streptococcus pyogenes M1 GAS;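 also: secreted streptokinase activity via plasminogen activation per viability signal from cell pellet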
T2 sequence (P10520 whole entry): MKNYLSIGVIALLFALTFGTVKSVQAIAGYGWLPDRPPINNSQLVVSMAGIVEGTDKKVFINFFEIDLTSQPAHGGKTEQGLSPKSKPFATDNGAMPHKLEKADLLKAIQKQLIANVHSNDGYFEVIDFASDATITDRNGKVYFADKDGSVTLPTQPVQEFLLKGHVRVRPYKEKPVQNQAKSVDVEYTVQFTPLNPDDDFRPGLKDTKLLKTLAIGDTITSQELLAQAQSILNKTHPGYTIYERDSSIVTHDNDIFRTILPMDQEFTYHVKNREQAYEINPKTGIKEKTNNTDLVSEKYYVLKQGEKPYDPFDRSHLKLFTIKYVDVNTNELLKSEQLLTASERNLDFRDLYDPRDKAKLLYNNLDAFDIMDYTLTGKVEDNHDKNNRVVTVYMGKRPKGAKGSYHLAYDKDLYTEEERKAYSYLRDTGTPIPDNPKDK

[7] = target: G-protein coupled receptor 55 (Homo sapiens, UniProt Q9Y2T6); test: inhibition of LPI-stimulated GPR55 beta-arrestin translocation – imaging, U2OS, beta-arrestin-GFP, LPI agonist, primary screen (AID 2013); type: functional;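 also: antagonist potency measured as reduced agonist-driven arrestin aggregation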
Streptococcus = test: GAS UMAA2166 growth inhibition – luminescence, BacTiterGlo, counter-screen for streptokinase expression inhibitor project, dose response (AID 1915); type: functional, organism-based;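 also: potency for reduction of bacterial viability or growth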
[8] = target: T3, Replicative DNA helicase DnaB (Mycobacterium tuberculosis, UniProt P9WMR3); test: DnaB intein splicing inhibitors, dose response, biochemical, cell-free fluorescence (AID 449749); type: functional
T3 sequence (P9WMR3 whole entry): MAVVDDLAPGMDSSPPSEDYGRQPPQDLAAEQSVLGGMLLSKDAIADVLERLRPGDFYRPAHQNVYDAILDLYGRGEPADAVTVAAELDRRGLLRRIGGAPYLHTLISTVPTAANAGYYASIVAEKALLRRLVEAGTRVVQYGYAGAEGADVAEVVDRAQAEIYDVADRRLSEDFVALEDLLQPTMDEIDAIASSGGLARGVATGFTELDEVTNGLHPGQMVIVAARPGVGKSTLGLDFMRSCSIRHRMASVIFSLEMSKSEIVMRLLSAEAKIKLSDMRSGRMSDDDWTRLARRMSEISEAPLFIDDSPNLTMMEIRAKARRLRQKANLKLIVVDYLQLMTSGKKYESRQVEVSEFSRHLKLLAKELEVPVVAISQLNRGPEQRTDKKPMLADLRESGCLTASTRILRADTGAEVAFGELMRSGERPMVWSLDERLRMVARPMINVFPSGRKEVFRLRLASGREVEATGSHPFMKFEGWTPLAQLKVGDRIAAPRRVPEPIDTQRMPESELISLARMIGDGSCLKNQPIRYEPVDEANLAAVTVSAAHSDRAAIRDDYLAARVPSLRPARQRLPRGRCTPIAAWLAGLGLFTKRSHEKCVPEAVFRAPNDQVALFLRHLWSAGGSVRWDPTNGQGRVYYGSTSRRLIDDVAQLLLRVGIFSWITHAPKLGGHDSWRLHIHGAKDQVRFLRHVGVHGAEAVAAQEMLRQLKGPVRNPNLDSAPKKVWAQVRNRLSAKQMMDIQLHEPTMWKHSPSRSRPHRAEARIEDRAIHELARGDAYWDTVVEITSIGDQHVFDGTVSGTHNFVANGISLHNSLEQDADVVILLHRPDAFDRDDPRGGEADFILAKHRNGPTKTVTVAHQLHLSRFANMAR

Protein RecA = target: T4, Protein RecA (Mycobacterium tuberculosis, UniProt P9WHJ3); test: Fluorescence Cell-Free Homogeneous Dose Retest to Identify Inhibitors of RecA-Intein Splicing Activity. [Related pubchem assays (depositor defined):AID2097, AID2223, AID489010, AID492950]; type: functional
T4 sequence (P9WHJ3 whole entry): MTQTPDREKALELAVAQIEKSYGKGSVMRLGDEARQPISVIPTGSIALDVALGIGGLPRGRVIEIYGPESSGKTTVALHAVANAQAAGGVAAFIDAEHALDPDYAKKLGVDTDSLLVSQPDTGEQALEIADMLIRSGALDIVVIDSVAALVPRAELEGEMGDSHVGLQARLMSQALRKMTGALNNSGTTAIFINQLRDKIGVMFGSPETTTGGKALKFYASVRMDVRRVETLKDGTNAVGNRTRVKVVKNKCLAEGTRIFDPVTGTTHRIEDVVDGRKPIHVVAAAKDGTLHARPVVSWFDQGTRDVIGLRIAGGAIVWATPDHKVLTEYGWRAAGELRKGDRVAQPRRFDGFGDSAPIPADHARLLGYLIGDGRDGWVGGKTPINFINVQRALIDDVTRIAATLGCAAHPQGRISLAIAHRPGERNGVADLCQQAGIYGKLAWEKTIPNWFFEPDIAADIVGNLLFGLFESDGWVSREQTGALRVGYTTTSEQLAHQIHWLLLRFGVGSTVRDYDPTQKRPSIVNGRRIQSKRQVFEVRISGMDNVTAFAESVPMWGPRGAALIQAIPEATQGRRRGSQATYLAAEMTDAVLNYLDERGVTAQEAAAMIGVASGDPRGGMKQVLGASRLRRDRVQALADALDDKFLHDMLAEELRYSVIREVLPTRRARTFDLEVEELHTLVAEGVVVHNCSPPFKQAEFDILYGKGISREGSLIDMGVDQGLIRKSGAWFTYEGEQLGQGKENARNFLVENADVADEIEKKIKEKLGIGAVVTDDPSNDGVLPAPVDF

[9] = luciferase reporter signal suppression in cells – H4 neuroglioma cells, luminescence, dose response (AID 1990); type: functional, cell-based
[10] = luciferase reporter signal reduction – luminescence, H4-C neuroglioblastoma cells, dose response (AID 2458); type: functional, cell-based;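 also: H4 neuroglioblastoma cells stably carrying a luciferase reporter gene fusion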
cells = type: functional, cell-based
[11] = Luminescence Cell-Based Dose Response HTS to Identify Inhibitors of 5'UTR Stem-Loop Driven Prion Protein mRNA Translation in H4 Neuroglioblastoma Cells. [Related pubchem assays: 1827 (Project Summary), 1813 (Primary HTS)]; type: functional
[12] = alpha-synuclein stem-loop luciferase translation blockers – H4 neuroglioma cells, luminescence, confirmation (AID 1988); type: functional, cell-based
[13] = alpha-synuclein stem-loop translation blockers – luminescence, H4 neuroglioblastoma cells, dose confirmation, confirmation (AID 2454); type: functional, cell-based;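 also: H4 neuroglioblastoma cells carrying an alpha-synuclein 5'UTR luciferase reporter; potency for inhibition of the luciferase signal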
[14] = target: Eukaryotic translation initiation factor 4H (Homo sapiens, UniProt Q15056); test: inhibitors of translation initiation factor eIF4H – SAR follow-up (AID 435011); type: functional
[15] = HEK-293T viability loss after treatment – luminescence, T-cell screen hits, cytotoxicity control for TCR NF-kB inhibitor project, dose response (AID 489026); type: functional, cell-based;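 also: cells exposed to compound about 14 hours before the viability readout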
[16] = target: Intestinal-type alkaline phosphatase (Homo sapiens, UniProt P09923); test: Dose Response confirmation of uHTS hits from a small molecule inhibitors of human intestinal alkaline phosphatase via a luminescent assay. [Related pubchem assays (depositor defined):AID2544, AID2574]; type: functional
H9c2 = test: cells; type: functional, cell-based; conditions: Rattus norvegicus, H9c2, Myocardium;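 also: confirmatory concentration-response retest of ultra-high-throughput screening hits for modulation of myocardial damage; cell death induced by hydrogen peroxide oxidative stress; compound pretreatment for 60 min then peroxide exposure for 2 h; potency is for protecting the cells against peroxide damage rather than for killing them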
[17] = target: T5, Mannose-6-phosphate isomerase (Homo sapiens, UniProt P34949); test: phosphomannose isomerase inhibition – biochemical, fluorescence intensity, confirmation (AID 1535)
T5 sequence (P34949 whole entry): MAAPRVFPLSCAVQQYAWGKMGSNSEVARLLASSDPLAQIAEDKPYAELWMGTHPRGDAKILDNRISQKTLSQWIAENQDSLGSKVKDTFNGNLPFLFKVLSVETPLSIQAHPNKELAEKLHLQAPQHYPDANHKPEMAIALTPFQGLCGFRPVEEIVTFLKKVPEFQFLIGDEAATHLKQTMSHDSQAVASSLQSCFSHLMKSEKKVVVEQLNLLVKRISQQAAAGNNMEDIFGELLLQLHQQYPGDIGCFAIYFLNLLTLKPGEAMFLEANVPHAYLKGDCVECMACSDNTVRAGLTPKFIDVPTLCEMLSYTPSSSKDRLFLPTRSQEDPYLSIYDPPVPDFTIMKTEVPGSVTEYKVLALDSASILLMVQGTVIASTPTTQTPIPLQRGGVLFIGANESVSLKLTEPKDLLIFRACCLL

Phosphomannomutase 2 = Phosphomannomutase 2 (Homo sapiens, UniProt O15305); test: Counter screen SAR assay for PMM2 inhibitors via a fluorescence intensity assay. [Related pubchem assays (depositor defined):AID1545, AID1574]
Sequence of Phosphomannomutase 2 (O15305 whole entry): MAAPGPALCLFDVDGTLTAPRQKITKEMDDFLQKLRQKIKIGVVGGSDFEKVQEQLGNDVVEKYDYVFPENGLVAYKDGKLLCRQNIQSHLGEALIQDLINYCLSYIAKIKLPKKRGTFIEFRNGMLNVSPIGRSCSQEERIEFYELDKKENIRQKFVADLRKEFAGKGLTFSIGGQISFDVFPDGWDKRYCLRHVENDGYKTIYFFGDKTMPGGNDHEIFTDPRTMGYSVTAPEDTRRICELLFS

Hexokinase = Hexokinase (Trypanosoma brucei, UniProt Q38C41); test: Confirmation assay for inhibitors of Trypanosoma brucei hexokinase 1-Analogue-first series. [Related pubchem assays (depositor defined):AID1430, AID1632, AID2516, AID2560, AID2579, AID2600, AID449725, AID492951]; type: functional
Sequence of Hexokinase (Q38C41 whole entry): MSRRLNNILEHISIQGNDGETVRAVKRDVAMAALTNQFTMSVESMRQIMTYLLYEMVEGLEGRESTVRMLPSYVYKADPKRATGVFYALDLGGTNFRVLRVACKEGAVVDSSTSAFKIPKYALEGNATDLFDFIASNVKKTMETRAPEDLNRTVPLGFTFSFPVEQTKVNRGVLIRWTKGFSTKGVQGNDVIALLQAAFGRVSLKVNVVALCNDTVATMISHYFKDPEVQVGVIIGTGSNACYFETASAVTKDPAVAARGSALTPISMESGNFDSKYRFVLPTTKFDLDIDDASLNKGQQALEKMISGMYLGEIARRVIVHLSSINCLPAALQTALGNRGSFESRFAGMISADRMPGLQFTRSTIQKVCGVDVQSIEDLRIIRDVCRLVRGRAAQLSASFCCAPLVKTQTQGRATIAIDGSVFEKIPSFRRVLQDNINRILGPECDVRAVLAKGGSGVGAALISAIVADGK

[18] = target: Glucose-6-phosphate 1-dehydrogenase (Homo sapiens, UniProt P11413); test: inhibition of Homo sapiens G6PD, dose series – biochemical, fluorescence, selectivity assay for P. falciparum G6PD inhibitor project, dose response (AID 504792); type: functional
[19] = Fluorescence-based cell-based high throughput dose response assay for inhibitors of the interaction of nucleotide-binding oligomerization domain containing 2 (NOD2) and the receptor-interacting serine-threonine kinase 2 (RIPK2).; type: functional; conditions: Homo sapiens
[20] = target: Voltage-dependent T-type calcium channel subunit alpha-1H (Homo sapiens, UniProt O95180); test: human CACNA1H calcium influx blockade – cell-based, synthetic library set 1, calcium flux (AID 493022); type: functional
Sequence of Voltage-dependent T-type calcium channel subunit alpha-1H (O95180 whole entry): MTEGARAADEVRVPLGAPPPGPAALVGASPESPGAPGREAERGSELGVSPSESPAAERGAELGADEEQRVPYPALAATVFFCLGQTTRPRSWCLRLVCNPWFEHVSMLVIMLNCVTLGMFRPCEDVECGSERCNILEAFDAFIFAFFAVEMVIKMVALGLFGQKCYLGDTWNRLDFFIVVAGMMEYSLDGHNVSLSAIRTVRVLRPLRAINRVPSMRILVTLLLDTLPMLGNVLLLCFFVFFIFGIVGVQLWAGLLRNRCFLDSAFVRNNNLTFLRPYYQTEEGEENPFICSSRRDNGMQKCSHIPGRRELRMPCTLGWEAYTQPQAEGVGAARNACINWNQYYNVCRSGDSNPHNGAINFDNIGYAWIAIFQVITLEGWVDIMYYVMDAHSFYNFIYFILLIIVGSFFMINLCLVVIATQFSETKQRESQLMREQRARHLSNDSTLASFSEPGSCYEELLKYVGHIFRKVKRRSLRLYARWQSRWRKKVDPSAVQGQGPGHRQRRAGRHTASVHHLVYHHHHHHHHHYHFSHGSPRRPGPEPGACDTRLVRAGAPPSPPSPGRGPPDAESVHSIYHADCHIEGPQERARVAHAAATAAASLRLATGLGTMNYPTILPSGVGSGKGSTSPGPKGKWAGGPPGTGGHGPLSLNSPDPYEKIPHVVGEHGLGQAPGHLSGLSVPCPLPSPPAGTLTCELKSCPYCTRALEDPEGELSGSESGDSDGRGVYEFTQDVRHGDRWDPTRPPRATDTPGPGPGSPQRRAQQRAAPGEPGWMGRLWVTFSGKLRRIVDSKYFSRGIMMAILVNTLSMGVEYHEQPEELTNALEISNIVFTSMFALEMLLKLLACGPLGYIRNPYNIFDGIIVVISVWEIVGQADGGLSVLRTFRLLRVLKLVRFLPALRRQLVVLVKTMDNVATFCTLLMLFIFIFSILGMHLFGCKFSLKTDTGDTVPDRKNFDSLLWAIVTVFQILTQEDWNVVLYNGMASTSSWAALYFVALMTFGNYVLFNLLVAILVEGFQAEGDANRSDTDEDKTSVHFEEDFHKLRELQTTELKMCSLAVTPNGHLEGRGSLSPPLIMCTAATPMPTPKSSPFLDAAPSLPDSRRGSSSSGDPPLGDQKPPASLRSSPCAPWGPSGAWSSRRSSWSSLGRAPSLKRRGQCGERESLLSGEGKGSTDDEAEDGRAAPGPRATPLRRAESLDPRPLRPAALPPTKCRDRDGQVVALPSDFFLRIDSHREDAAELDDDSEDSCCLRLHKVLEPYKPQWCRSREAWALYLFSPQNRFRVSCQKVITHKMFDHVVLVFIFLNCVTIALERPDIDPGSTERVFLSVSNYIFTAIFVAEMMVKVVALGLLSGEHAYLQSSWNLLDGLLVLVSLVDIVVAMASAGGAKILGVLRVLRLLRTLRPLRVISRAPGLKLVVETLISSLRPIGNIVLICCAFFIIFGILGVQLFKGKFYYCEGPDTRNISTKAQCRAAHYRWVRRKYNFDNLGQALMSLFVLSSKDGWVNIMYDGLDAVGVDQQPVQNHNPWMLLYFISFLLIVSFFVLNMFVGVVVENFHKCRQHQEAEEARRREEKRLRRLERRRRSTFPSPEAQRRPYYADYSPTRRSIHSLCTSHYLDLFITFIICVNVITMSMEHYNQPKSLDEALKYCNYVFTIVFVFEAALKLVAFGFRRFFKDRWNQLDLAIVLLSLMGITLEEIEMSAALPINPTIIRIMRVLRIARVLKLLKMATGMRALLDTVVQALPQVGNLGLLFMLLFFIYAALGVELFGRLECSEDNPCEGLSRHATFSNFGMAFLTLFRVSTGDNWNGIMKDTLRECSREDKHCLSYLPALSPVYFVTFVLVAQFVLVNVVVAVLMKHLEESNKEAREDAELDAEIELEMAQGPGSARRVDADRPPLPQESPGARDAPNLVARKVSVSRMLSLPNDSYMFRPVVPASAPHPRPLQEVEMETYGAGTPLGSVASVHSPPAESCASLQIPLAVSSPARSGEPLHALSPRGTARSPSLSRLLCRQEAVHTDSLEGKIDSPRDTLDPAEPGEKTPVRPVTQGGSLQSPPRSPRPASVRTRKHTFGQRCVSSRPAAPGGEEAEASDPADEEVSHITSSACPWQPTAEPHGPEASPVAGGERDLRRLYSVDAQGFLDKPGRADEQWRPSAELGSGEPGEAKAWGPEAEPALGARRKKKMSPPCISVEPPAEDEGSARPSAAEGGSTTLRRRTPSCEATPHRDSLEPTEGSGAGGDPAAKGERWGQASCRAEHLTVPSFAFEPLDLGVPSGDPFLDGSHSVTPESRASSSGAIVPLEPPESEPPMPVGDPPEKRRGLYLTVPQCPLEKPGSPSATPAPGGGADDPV

[21] = target: Alkaline phosphatase, placental type (Homo sapiens, UniProt P05187); test: human placental alkaline phosphatase inhibition – biochemical, luminescence, confirmation (AID 1512); type: functional
Sequence of Alkaline phosphatase, placental type (P05187 whole entry): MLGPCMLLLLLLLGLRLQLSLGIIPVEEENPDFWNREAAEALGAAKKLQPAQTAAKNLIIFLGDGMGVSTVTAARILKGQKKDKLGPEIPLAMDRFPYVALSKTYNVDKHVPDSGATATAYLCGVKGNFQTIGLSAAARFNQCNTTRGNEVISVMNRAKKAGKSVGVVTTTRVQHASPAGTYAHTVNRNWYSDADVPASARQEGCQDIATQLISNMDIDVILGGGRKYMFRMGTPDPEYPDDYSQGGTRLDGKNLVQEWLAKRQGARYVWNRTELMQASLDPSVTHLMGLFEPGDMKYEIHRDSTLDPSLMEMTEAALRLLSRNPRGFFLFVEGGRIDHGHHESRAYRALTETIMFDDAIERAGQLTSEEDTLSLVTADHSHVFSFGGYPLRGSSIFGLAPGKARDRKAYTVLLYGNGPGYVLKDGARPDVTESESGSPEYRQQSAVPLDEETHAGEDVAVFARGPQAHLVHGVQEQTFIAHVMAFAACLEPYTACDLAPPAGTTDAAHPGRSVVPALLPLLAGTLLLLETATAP

[22] = target: T6, Alkaline phosphatase, tissue-nonspecific isozyme (Homo sapiens, UniProt P05186); test: potency against alkaline phosphatase TNAP – biochemical, luminescent, dose response, SAR follow-up (AID 1056)
T6 sequence (P05186 whole entry): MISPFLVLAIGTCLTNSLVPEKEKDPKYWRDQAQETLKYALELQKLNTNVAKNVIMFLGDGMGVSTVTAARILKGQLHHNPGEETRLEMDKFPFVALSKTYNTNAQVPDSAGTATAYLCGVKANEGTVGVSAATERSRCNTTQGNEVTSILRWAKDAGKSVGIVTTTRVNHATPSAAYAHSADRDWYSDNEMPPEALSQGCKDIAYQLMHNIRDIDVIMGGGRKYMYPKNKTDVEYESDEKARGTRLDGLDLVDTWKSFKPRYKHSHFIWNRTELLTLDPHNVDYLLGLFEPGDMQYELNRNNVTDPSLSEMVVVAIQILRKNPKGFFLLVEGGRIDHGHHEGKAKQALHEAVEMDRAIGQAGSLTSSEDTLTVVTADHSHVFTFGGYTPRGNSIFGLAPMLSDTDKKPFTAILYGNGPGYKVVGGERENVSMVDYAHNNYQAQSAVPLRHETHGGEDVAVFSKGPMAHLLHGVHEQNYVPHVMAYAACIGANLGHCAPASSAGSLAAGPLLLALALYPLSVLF

Sequence of Glyceraldehyde-3-phosphate dehydrogenase (P04406 whole entry): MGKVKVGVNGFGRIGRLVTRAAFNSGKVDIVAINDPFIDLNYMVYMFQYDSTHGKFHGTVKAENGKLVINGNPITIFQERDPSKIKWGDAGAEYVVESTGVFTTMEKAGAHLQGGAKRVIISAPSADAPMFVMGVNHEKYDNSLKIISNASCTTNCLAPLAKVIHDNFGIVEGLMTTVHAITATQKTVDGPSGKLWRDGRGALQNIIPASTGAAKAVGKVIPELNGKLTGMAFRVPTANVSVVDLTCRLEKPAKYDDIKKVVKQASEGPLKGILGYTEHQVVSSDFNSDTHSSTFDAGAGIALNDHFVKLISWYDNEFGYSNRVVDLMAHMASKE

COc1cc(/C=C2\SC(N(C)c3ccc(O)cc3)=NC2=O)ccc1OCC(=O)O
IC50 [1]: > 100 µM (not active)
IC50 [2]: > 100 µM (inactive)
IC50 [3]: > 100 µM (inactive)
IC50 [4]: > 100 µM (inactive)

c1ccc(-c2nc(N3CCCCCC3)nc(-n3ccnc3)n2)cc1
CC50 [5]: 20.1 µM (active)
EC50 [6]: 4.08 µM (active)
EC50 (Streptokinase A): > 150 µM (not active)
IC50 [7]: 3.77 µM (active)
EC50 (Streptococcus): 7.9 µM (active)
AC50 [8]: 63.8 µM (active)
EC50 (Protein RecA): > 380 µM (inactive)

Cc1ccc(N2C(=O)c3cccc4c(N)ccc(c34)C2=O)c2cccnc12
EC50 [9]: < 0.1 µM (active)
EC50 [10]: 0.111 µM (active)
EC50 (cells): 0.101 µM (active)
EC50 [11]: < 0.1 µM (active)
EC50 [12]: < 0.1 µM (active)
EC50 [13]: 0.124 µM (active)
IC50 [14]: > 100 µM (inactive)
IC50 [15]: > 80 µM (inactive)

CC(=O)CCc1ccc(Oc2nc(-c3cccnc3)nc3ccccc23)cc1
IC50 [16]: > 100 µM (inactive)
IC50 (H9c2): > 79 µM (inactive)

Clc1nss/c1=N\C1CCC1
IC50 [17]: 15.6 µM (active)
IC50 (Phosphomannomutase 2): 76.3 µM (active)

O=C(Cn1sc2ccccc2c1=O)Nc1ccc(Br)cc1
IC50 (Hexokinase): > 25 µM (inactive)
IC50 [18]: 24.2 µM (inactive)
IC50 [19]: 10.2 µM (inactive)

O=C(COc1ccc(F)cc1Cl)Nc1nnc(-c2ccc3c(c2)CCCC3)o1
EC50 [20]: 10 µM (active)

O=c1c2[nH]c3ccc(F)cc3c2ncn1CCc1ccc(O)c(O)c1
IC50 [21]: 1.04 µM (active)
IC50 [22]: 0.253 µM (active)
